Holding throughout (assay): malachite green phosphate ATPase assay
Holding throughout (format): biochemical

One assay concerns the target T1, S. cerevisiae Rad54 (Saccharomyces cerevisiae, UniProt P32863).
T1 sequence (P32863 1-898): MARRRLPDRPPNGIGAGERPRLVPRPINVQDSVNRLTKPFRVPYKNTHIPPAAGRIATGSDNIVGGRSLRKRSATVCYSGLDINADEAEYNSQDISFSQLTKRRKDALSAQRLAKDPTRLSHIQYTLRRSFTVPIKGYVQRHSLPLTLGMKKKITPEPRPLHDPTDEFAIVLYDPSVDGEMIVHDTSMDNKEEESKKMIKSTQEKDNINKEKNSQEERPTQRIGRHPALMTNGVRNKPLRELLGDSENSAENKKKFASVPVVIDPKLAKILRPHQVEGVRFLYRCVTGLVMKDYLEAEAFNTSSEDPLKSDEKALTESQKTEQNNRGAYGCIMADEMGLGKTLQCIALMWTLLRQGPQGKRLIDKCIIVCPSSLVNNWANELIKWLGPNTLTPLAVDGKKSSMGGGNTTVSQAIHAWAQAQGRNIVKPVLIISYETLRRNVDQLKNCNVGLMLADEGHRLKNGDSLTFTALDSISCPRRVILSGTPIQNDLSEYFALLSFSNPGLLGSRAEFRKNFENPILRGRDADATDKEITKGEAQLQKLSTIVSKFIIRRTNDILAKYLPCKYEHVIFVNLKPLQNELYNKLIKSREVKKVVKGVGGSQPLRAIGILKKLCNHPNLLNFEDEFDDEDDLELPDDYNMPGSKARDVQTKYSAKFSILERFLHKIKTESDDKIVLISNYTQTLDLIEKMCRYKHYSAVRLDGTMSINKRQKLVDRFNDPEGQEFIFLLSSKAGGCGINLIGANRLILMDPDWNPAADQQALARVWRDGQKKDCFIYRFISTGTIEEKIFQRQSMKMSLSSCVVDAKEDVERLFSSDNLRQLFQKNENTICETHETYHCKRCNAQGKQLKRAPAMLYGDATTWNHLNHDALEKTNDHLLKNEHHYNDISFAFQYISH

In another assay the target is T2, H. sapiens HLTF (Homo sapiens, UniProt Q14527).
T2 sequence (Q14527 1-1009): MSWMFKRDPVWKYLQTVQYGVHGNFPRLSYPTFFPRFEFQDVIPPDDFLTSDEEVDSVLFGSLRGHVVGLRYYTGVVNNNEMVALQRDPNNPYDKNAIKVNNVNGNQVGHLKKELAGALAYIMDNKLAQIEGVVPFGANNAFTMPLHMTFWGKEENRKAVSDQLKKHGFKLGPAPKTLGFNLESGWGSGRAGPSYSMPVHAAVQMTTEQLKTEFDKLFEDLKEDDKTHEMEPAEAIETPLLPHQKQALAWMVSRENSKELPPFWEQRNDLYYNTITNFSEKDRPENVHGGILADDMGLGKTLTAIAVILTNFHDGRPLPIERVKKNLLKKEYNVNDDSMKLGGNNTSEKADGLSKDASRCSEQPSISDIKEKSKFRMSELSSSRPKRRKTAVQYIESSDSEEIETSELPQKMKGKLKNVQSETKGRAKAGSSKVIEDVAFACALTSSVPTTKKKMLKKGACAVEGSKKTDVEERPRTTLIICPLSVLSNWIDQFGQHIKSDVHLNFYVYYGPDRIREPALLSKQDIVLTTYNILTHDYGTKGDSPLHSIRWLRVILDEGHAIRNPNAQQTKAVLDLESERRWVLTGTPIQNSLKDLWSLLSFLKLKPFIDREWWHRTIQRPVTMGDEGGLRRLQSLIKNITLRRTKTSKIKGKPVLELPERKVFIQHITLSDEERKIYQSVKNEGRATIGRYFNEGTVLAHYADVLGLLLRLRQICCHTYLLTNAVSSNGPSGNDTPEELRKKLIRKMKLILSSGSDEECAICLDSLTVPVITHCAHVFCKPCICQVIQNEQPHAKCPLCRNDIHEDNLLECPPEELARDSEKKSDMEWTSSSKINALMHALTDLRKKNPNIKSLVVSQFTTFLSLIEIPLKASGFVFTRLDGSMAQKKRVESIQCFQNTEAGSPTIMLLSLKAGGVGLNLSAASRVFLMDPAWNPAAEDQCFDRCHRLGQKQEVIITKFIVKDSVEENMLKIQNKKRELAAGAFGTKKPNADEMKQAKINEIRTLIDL

Another assay has as its target T3, E. coli RecA (Escherichia coli, UniProt P0A7G6).
T3 sequence (P0A7G6 2-353): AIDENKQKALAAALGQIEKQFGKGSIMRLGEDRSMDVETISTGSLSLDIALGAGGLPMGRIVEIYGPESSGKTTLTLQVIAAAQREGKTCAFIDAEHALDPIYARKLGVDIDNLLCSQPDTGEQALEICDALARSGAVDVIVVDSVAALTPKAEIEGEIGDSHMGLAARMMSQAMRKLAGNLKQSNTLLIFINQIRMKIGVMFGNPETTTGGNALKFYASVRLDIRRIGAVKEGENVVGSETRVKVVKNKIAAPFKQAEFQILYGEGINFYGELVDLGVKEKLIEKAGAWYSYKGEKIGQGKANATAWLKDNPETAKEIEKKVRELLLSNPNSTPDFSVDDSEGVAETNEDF

Structures are written as SMILES.

`CN(C)CCCNCC(O)Cn1c2ccc(Cl)cc2c2cc(Cl)ccc21` (stereo not drawn) [54i-1]: the IC50 on S. cerevisiae Rad54 stood at 3.8 ± 1.8 µM; on H. sapiens HLTF, 377 ± 195 µM; against E. coli RecA it was 0.79 ± 0.05 µM.

The record behind these values is publication doi:10.1101/614586v1 (biorxiv, 2019).
